SMILES strings stand for the structures. A value given as a limit tells only on which side of the number the result lay.

One may read the IC50 as the concentration needed to halve the response being measured. A high value points to weaker potency.

The assay has as its target T1, CDK2/Cyclin E1 (Homo sapiens, UniProt P24941).
T1 construct: utilize full-length human CDK2 co-expressed as N-terminal GST-tagged protein; GST (N); purchased Carna 04-165; host or cells: baculovirus expression system
Description: CDK2/Cyclin E1 HTRF enzyme activity assay (Example A). The assay is classed as biochemical. The settings on record: 1 mM ATP. The protocol:
CDK2/Cyclin E1 enzyme activity assays utilize full-length human CDK2 co-expressed as N-terminal GST-tagged protein with FLAG-Cyclin E1 in a baculovirus expression system (Carna Product Number 04-165). Assays are conducted in white 384-well polystyrene plates in a final reaction volume of 8 μL. CDK2/Cyclin E1 (0.25 nM) is incubated with compounds (40 nL serially diluted in DMSO) in the presence of ATP (50 μM or 1 mM) and 50 nM ULight™-labeled eIF4E-binding protein 1 (THR37/46) peptide (PerkinElmer) in assay buffer (containing 50 mM HEPES pH 7.5, 1 mM EGTA, 10 mM MgC2, 2 mM DTT, 0.05 mg/mL BSA, and 0.01% Tween 20) for 60 minutes at room temperature. The reactions are stopped by the addition of EDTA and Europium-labeled anti-phospho-4E-BP1 antibody (PerkinElmer), for a final concentration of 15 mM and 1.5 nM, respectively. HTRF signals are read after 1 hour at room temperature on a PHERAstar FS plate reader (BMG Labtech). Data is analyzed with IDBS XLFit and GraphPad Prism 5.0 software using a three or four parameter dose response curve to determine IC50 for each compound.
With `C[C@@H](C1CC1)N1C(=O)C2(CC2)c2cnc(NC3CCN(S(=O)(=O)c4ncc[nH]4)CC3)nc21` [Example B14, (S)-2′-((1-((1H-imidazol-2-yl)sulfonyl)piperidin-4-yl)amino)-7′-(1-cyclopropylethyl)spiro[cyclopropane-1,5′-pyrrolo[2,3-d]pyrimidin]-6′(7′H)-one], the IC50 is not above 50 nM.

In the case of `C[C@@]1(O)CCC[C@H]1N1C(=O)C2(CC2)c2cnc(NC3CCN(S(=O)(=O)c4ncc[nH]4)CC3)nc21` (relative stereo) [Example B17, 2′-((1-((1H-imidazol-2-yl)sulfonyl)piperidin-4-yl)amino)-7′-((trans)-2-hydroxy-2-methylcyclopentyl)spiro[cyclopropane-1,5′-pyrrolo[2,3-d]pyrimidin]-6′(7′H)-one], the IC50 was not above 50 nM.

In turn, `Cc1ccccc1N1C(=O)C2(CC2)c2cnc(NC3CCN(S(C)(=O)=O)CC3)nc21` [Example B9, 2′-((1-(methylsulfonyl)piperidin-4-yl)amino)-7′-(o-tolyl)spiro[cyclopropane-1,5′-pyrrolo[2,3-d]pyrimidin]-6′(7′H)-one] displayed an IC50 of 100 to 500 nM.

`Cc1c(N2C(=O)C3(CC3)c3cnc(NC4CCN(S(C)(=O)=O)CC4)nc32)cnn1C` [Example B11, 7′-(1,5-dimethyl-1H-pyrazol-4-yl)-2′-((1-(methylsulfonyl)piperidin-4-yl)amino)spiro[cyclopropane-1,5′-pyrrolo[2,3-d]pyrimidin]-6′(7H)-one]: the half-inhibitory concentration (IC50) was in the range of 50 to 100 nM.

Regarding `CCC(C(F)F)N1C(=O)C(C)(C)Cc2cnc(NC3CCN(S(C)(=O)=O)CC3)nc21` (racemic) [Example A4, 8-(1,1-difluorobutane-2-yl)-6,6-dimethyl-2-((1-(methylsulfonyl)piperidin-4-yl)amino)-5,8-dihydropyrido[2,3-d]pyrimidin-7(6H)-one], the IC50 lay in the range of 50 to 100 nM.

The compound `Cn1cc(S(=O)(=O)N2CCC(Nc3ncc4c(n3)N(C3CCCC3)C(=O)C43CC3)CC2)cn1` [Example B7, 7′-cyclopentyl-2′-((1-((1-methyl-1H-pyrazol-4-yl)sulfonyl)piperidin-4-yl)amino)spiro[cyclopropane-1,5′-pyrrolo[2,3-d]pyrimidin]-6′(7′H)-one] displayed an IC50 not above 50 nM.

The compound `O=C1N(C2CCCC2)c2nc(NC3CCN(S(=O)(=O)c4cccnc4)CC3)ncc2C12CC2` [Example B5, 7′-cyclopentyl-2′-((1-(pyridin-3-ylsulfonyl)piperidin-4-yl)amino)spiro[cyclopropane-1,5′-pyrrolo[2,3-d]pyrimidin]-6′(7′H)-one] gave an IC50 not above 50 nM.

`CC1(C)Cc2cnc(NC3CCN(S(C)(=O)=O)CC3)nc2N(C2CCOC2)C1=O` (racemic) [Example A6, 6,6-dimethyl-2-((1-(methylsulfonyl)piperidin-4-yl)amino)-8-(tetrahydrofuran-3-yl)-5,8-dihydropyrido[2,3-d]pyrimidin-7(6H)-one] showed an IC50 of 100 to 500 nM.

Consider `CS(=O)(=O)N1CCC(Nc2ncc3c(n2)N(C2CCCC2)C(=O)C32CC2)CC1` [Example B2, 7′-cyclopentyl-2′-((1-(methylsulfonyl)piperidin-4-yl)amino)spiro[cyclopropane-1,5′-pyrrolo[2,3-d]pyrimidin]-6′(7′H)-one], for which the IC50 was 100 to 500 nM.

`O=C1N([C@@H]2CCC[C@@H](O)C2)c2nc(NC3CCN(S(=O)(=O)c4cccc(N5CCC5)n4)CC3)ncc2C12CC2` [Example B13, 2′-((1-((6-(azetidin-1-yl)pyridin-2-yl)sulfonyl)piperidin-4-yl)amino)-7′-((1R,3R)-3-hydroxycyclohexyl)spiro[cyclopropane-1,5′-pyrrolo[2,3-d]pyrimidin]-6′(7′H)-one] returned an IC50 not above 50 nM.

Regarding `C[C@@H](C1CC1)N1C(=O)C2(CC2)c2cnc(NC3CCN(S(=O)(=O)c4ccc(=O)[nH]c4)CC3)nc21` [Example B15, (S)-7′-(1-cyclopropylethyl)-2′-((1-((6-oxo-1,6-dihydropyridin-3-yl)sulfonyl)piperidin-4-yl)amino)spiro[cyclopropane-1,5′-pyrrolo[2,3-d]pyrimidin]-6′(7′H)-one], the IC50 is not above 50 nM.

Turning to `Cn1nccc1CN1C(=O)C(C)(C)Cc2cnc(NC3CCN(S(C)(=O)=O)CC3)nc21` [Example A5, 6,6-dimethyl-8-((1-methyl-1H-pyrazol-5-yl)methyl)-2-((1-(methylsulfonyl)piperidin-4-yl)amino)-5,8-dihydropyrido[2,3-d]pyrimidin-7(6H)-one], the IC50 lay within 100 to 500 nM.

Compound `CCn1cnc(S(=O)(=O)N2CCC(Nc3ncc4c(n3)N(c3cc(F)ccc3Cl)C(=O)C43CC3)CC2)c1` [Example B19, 7′-(2-chloro-5-fluorophenyl)-2′-((1-((1-ethyl-1H-imidazol-4-yl)sulfonyl)piperidin-4-yl)amino)spiro[cyclopropane-1,5′-pyrrolo[2,3-d]pyrimidin]-6′(7′H)-one] came in with an IC50 not above 50 nM.

`CC1CC(Nc2ncc3c(n2)N(C2CCCC2)C(=O)C32CC2)CCN1S(C)(=O)=O` (centres unmarked) [Example B1, 7′-cyclopentyl-2′-((2-methyl-1-(methylsulfonyl)piperidin-4-yl)amino)spiro[cyclopropane-1,5′-pyrrolo[2,3-d]pyrimidin]-6′(7′H)-one] yielded an IC50 of 100 to 500 nM.

The compound `CC1(C)Cc2cnc(NC3CCN(S(C)(=O)=O)CC3)nc2N(C2CCCC2)C1=O` [Example A2, 8-cyclopentyl-6,6-dimethyl-2-((1-(methylsulfonyl)piperidin-4-yl)amino)-5,8-dihydropyrido[2,3-d]pyrimidin-7(6H)-one] had an IC50 not above 50 nM.

Turning to `CC1(C)Cc2cnc(NC3CCN(S(C)(=O)=O)CC3)nc2N(c2ccccc2)C1=O` [Example A3, 6,6-dimethyl-2-((1-(methylsulfonyl)piperidin-4-yl)amino)-8-phenyl-5,8-dihydropyrido[2,3-d]pyrimidin-7(6H)-one], the concentration for half-maximal inhibition (IC50) lay within 100 to 500 nM.

For `CC1(C)Cc2cnc(Nc3ccc(S(N)(=O)=O)cc3)nc2N(C2CCCC2)C1=O` [Example A1, 4-((8-cyclopentyl-6,6-dimethyl-7-oxo-5,6,7,8-tetrahydropyrido[2,3-d]pyrimidin-2-yl)amino)benzenesulfonamide], the IC50 was not above 50 nM.

Consider `Cn1cc(S(=O)(=O)N2CCC(Nc3ncc4c(n3)N([C@@H]3CCC[C@@H](O)C3)C(=O)C43CC3)CC2)cn1` [Example B12, 7′-((1R,3R)-3-hydroxycyclohexyl)-2′-((1-((1-methyl-1H-pyrazol-4-yl)sulfonyl)piperidin-4-yl)amino)spiro[cyclopropane-1,5′-pyrrolo[2,3-d]pyrimidin]-6′(7′H)-one], for which the 50% inhibitory concentration (IC50) was not above 50 nM.

`CCN1CC(n2cc(S(=O)(=O)N3CCC(Nc4ncc5c(n4)N([C@@H](C)C4CC4)C(=O)C54CC4)CC3)cn2)C1` [Example B16, (S)-7′-(1-cyclopropylethyl)-2′-((1-((1-(1-ethylazetidin-3-yl)-1H-pyrazol-4-yl)sulfonyl)piperidin-4-yl)amino)spiro[cyclopropane-1,5′-pyrrolo[2,3-d]pyrimidin]-6′(7′H)-one] registered a concentration for half-maximal inhibition (IC50) not above 50 nM.

With `O=C1N(C2CCCC2)c2nc(NC3CCN(S(=O)(=O)C4CC4)CC3)ncc2C12CC2` [Example B3, 7′-cyclopentyl-2′-((1-(cyclopropylsulfonyl)piperidin-4-yl)amino)spiro[cyclopropane-1,5′-pyrrolo[2,3-d]pyrimidin]-6′(7′H)-one], the IC50 is not above 50 nM.

Source of the values: patent US20200316064A1, “CYCLIN-DEPENDENT KINASE 2 BIOMARKERS AND USES THEREOF” (Incyte Corporation, priority 2019, published 2020).
